Laboratory results as given in ChEMBL document CHEMBL4402557, “Nidufexor (LMB763), a Novel FXR Modulator for the Treatment of Nonalcoholic Steatohepatitis” (J Med Chem, 2020).

Experiments:
[1] = target: T1, Bile acid receptor (Homo sapiens, UniProt Q96RI1); assay: Agonist activity at GST-tagged human FXR-LBD (193 to 472 residues) using biotinylated SRC-1 peptide as substrate incubated for 1 hrs by HTRF assay
T1 sequence (Q96RI1 whole entry): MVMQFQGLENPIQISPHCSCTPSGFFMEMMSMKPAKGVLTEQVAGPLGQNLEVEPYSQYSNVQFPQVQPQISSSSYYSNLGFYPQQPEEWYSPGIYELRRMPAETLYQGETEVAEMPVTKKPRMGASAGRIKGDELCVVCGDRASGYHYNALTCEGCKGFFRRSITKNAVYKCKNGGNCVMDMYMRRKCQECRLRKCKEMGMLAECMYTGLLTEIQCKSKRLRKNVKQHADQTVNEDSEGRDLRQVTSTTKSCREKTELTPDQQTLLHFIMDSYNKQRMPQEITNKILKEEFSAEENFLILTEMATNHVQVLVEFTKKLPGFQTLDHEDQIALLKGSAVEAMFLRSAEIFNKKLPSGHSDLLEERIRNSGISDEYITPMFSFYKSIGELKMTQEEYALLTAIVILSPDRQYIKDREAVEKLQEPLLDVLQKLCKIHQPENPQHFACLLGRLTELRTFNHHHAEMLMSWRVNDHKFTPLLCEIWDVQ

[2] = Oral bioavailability in Wistar rat at 10 mg/kg in presence of TRIS salt; assay type: ADME, organism-based; details: in vivo
[3] = AUC in Wistar rat at 3 mg/kg, po; assay type: ADME, organism-based; details: in vivo
[4] = Cmax in Wistar rat at 3 mg/kg, po; assay type: ADME, organism-based; parameters: dose 3 mg/kg, route oral; details: in vivo
[5] = Half life in Wistar rat at 100 mg/kg, po; assay type: ADME, organism-based; details: in vivo
[6] = Half life in Wistar rat at 300 mg/kg, po; assay type: ADME, organism-based; details: in vivo
[7] = Oral bioavailability in Wistar rat at 3 mg/kg; assay type: ADME, organism-based; details: in vivo
[8] = Oral bioavailability in Wistar rat at 10 mg/kg; assay type: ADME, organism-based; details: in vivo
[9] = target: T2, Bile acid receptor (Rattus norvegicus) (UniProt Q62735); assay: Agonist activity at FXR in rat primary hepatocytes assessed as increase in BSEP mRNA level incubated for 24 hrs by qRT-PCR analysis relative to tropifexor; assay type: cell-based
T2 sequence (whole entry): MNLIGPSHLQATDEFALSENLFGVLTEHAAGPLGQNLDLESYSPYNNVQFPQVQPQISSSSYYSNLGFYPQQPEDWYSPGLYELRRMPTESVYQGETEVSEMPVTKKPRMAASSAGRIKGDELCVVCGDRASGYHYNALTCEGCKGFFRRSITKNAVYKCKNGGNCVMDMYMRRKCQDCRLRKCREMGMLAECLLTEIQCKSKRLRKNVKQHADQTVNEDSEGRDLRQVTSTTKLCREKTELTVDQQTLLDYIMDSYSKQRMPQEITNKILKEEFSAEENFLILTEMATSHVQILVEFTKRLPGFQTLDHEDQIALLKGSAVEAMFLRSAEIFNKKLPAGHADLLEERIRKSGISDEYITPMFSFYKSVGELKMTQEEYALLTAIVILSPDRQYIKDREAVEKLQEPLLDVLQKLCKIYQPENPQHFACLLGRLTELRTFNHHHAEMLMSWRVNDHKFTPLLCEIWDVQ

[10] = target: T3, Glucocorticoid receptor (Homo sapiens, UniProt P04150); assay: Agonist activity at Glucocorticoid receptor (unknown origin) incubated for 2 hrs by TR-FRET assay
T3 sequence (P04150 whole entry): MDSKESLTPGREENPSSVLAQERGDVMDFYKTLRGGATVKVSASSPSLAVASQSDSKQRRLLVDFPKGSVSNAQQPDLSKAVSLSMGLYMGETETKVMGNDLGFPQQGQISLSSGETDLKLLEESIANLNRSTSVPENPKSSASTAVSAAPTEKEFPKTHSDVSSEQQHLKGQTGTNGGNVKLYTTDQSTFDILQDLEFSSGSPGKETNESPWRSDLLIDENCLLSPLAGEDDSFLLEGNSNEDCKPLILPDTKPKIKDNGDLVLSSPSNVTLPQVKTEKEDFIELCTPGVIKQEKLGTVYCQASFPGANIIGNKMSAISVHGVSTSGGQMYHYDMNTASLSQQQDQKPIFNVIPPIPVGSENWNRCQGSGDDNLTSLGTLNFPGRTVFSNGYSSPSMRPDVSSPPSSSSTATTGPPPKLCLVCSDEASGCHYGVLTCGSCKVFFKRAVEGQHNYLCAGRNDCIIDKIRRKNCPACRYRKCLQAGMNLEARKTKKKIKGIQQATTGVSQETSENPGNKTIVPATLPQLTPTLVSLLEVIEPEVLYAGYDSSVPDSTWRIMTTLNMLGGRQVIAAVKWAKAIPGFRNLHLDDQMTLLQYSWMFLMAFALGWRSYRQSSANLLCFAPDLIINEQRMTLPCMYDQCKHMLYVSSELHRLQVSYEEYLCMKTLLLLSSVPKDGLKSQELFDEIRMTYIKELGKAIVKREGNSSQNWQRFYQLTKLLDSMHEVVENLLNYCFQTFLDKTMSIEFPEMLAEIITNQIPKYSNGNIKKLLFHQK

[11] = target: T3, Glucocorticoid receptor; assay: Agonist activity at GAL4-fused Glucocorticoid receptor (unknown origin) expressed in HEK293T cells incubated for 24 by BrightGlo reagent based assay; assay type: cell-based
[12] = test system: Rattus norvegicus; assay: In-vivo agonist activity at FXR in orally dosed Han Wistar rat assessed as upregulation of BSEP mRNA level in liver administered via oral gavage once daily for 14 days measured post last dose by qRT-PCR analysis; assay type: functional, organism-based
[13] = test system: Rattus norvegicus; assay: In-vivo agonist activity at FXR in orally dosed Han Wistar rat assessed as upregulation of FGF15 mRNA level in ileum administered via oral gavage once daily for 14 days measured post last dose by qRT-PCR analysis; assay type: functional, organism-based
[14] = test system: Rattus norvegicus; assay: In-vivo agonist activity at FXR in orally dosed Han Wistar rat assessed as upregulation of SHP mRNA level in ileum administered via oral gavage once daily for 14 days measured post last dose by qRT-PCR analysis; assay type: functional, organism-based
[15] = Volume of distribution at steady state in rabbit at 5 mg/kg, iv; assay type: ADME, organism-based, Oryctolagus cuniculus; details: in vivo, read-out: Vdss
[16] = Half life in rabbit at 5 mg/kg, iv; assay type: ADME, organism-based, Oryctolagus cuniculus; details: in vivo
[17] = Oral bioavailability in dog at 2 mg/kg; assay type: ADME, organism-based, Canis lupus familiaris; details: in vivo
[18] = Terminal half life in orally dosed rat; assay type: ADME, organism-based; details: in vivo, po, read-out: beta t1/2 (converted)

Cn1nc(C(=O)N(Cc2ccccc2)Cc2ccc(C(=O)O)cc2)c2c1-c1cc(Cl)ccc1OC2 [NIDUFEXOR] gave an EC50 [1] of 0.007 µM, a bioavailability [2] of 52% and an AUC [3] of 9.2 µM·h. It also gave a Cmax [4] of 4.5 µM, a half-life [5] of 5.6 h and a half-life [6] of 6.3 h. For the same compound, the bioavailability [7] was 63%, the bioavailability [8] was 52% and the Activity [9] was 3.7%. The EC50 [10] was greater than 30 µM, the EC50 [11] was greater than 10 µM and the Activity [12] was “Dose-dependent effect”. For the same compound, the Activity [13] was “Dose-dependent effect”, the Activity [14] was “Dose-dependent effect” and the Vd [15] was 0.6 L/kg. It also gave a half-life [16] of 4.4 h, a bioavailability [17] of 80% and a half-life [18] of 13 h.
